Reference: patent US8143421B2, “Broadspectrum substituted benzimidazole sulfonamide HIV protease inhibitors” (priority 2002, dated 2012)
Where two headings read alike, the source gives them in different places.

Experiments:
HIV-1 strain LAI = test: Cellular anti-HIV assay, MT4 cells, MTT readout, wild type HIV-1 strain LAI; type: cell-based
Procedure: The compounds of the present invention were examined for anti-viral activity in a cellular assay. […] The cellular assay was performed according to the following procedure.

mutant B = test: Antiviral spectrum, fold resistance towards mutant B; type: cell-based; details: FR=IC50(mutant strain)/IC50(HIV-1 strain LAI)
Procedure: (§1) Because of the increasing emergence of drug resistant HIV strains, the present compounds were tested for their potency against clinically isolated HIV strains harboring several mutations. These mutations are associated with resistance to protease inhibitors and result in viruses that show various degrees of phenotypic cross-resistance to the currently commercially available drugs such as for instance saquinavir, ritonavir, nelfinavir, indinavir and amprenavir. The viral strains R13025, R13027, R13028, R13029, R13034, R13080, T13127 and R13363 contained mutations as indicated below in Table 3.

mutant C = test: Antiviral spectrum, fold resistance towards mutant C; type: cell-based; details: FR=IC50(mutant strain)/IC50(HIV-1 strain LAI)
Procedure: as §1

mutant D = test: Antiviral spectrum, fold resistance towards mutant D; type: cell-based; details: FR=IC50(mutant strain)/IC50(HIV-1 strain LAI)
Procedure: as §1

mutant A = type: cell-based; details: FR=IC50(mutant strain)/IC50(HIV-1 strain LAI)
mutant E = type: cell-based; details: FR=IC50(mutant strain)/IC50(HIV-1 strain LAI)
mutant F = test: Antiviral spectrum, fold resistance towards mutant F; type: cell-based; details: FR=IC50(mutant strain)/IC50(HIV-1 strain LAI)
Procedure: as §1

mutant H = test: Antiviral spectrum, fold resistance towards mutant H; type: cell-based; details: FR=IC50(mutant strain)/IC50(HIV-1 strain LAI)
Procedure: as §1

in vitro = details: human
mutant G = test: Antiviral spectrum, fold resistance towards mutant G; type: cell-based; details: FR=IC50(mutant strain)/IC50(HIV-1 strain LAI)
Procedure: as §1

mock-infected MT4 cells = test: Toxicity on mock-infected MT4 cells (CC50)
[1] = Oral availability in the rat, serum concentration; type: in vivo
Procedure: The compounds are formulated as a 20 mg/ml solution or suspension in DMSO, PEG400 or cyclodextin 40% in water. For most experiments in the rat (male and female rats), three dosing groups are formed: 1/single intraperitoneal (IP) dose at 20 mg/kg using DMSO formulation; 2/single oral dose at 20 mg/kg using […] oral dose at 20 mg/kg using PEG400 formulation. Blood is sampled at regular time intervals after dosing and drug concentrations in the serum are determined using a LC-MS bioanalytical method. Serum concentrations are expressed in […]. Serum concentration at 30 minutes (30′) and at 3 hours (180′) can be determined as these values reflect the extent of absorption (30′) and the speed of elimination (180′). The rat serum concentration at 30 min and 180 min following IP administration of 20 mg/kg of compound 18 are 2012 ng/ml and 190 ng/ml respectively. The rat serum concentration at 30 min and 180 min following oral administration of 20 mg/kg as a DMSO formulation of compound 18 are 148 ng/ml and 44 ng/ml respectively; whereas in PEG400 said concentrations are respectively 475 ng/ml and 63 ng/ml.

[2] = Human immunodeficiency virus 1, 120 h, Table 1, MT4 cells, five days, HIV-1 strain LAI, read-out: pIC50 (LAI) (converted)
[3] = Human immunodeficiency virus 1, MT4, Table 4, wild type HIV-LAI strain, read-out: WT (pIC50 against wild type HIV-LAI strain) (converted)
[4] = Table 1, MT4 cells, five days, HIV-1 strain LAI
[5] = Table 4, wild type HIV-LAI strain
[6] = pCC50 value as determined with mock transfected cells

Molecule | FR towards mutant B (mutant B) | FR towards mutant C (mutant C) | FR towards mutant D (mutant D) | FR value towards mutant A (mutant A) | FR towards mutant E (mutant E) | FR towards mutant F (mutant F) | pIC50 (LAI) (HIV-1 strain LAI; [4]) | WT (pIC50 against wild type HIV-LAI strain) (HIV-1 strain LAI; [5]) | FR towards mutant G (mutant G) | Tox (pCC50) (mock-infected MT4 cells) | other results
Cc1nc2ccc(S(=O)(=O)N(CC(C)C)C[C@@H](O)[C@H](Cc3ccccc3)NC(=O)O[C@H]3CO[C@H]4OCC[C@H]43)cc2n1Cc1ccccc1 [Compound 2, [(1S,2R)-2-hydroxy-3-[[[[2-methyl-1-(phenylmethyl)]benzimidazol-6-yl]sulfonyl]-(2-methylpropyl)amino]-1-(phenylmethyl)propyl]carbamic acid, [(3R,3aS,6aR)-hexahydrofuro[2,3-b]furan-3-yl]ester] | 6.3 | 1.9 | 6.3 | 32 | 2.9 | 162 | – | – | – | – | IC50 (HIV-1 strain LAI; [2]): 1 nM; IC50 (HIV-1 strain LAI; [3]): 1 nM; FR towards mutant H (mutant H): 89; CC50 at 5 days (in vitro): 63100 nM
CC(C)CN(CC(O)C(Cc1ccccc1)NC(=O)OC1COC2OCCC12)S(=O)(=O)c1ccc2ncn(CCc3ccccc3)c2c1 (stereo not shown) [Compound 5] | 1.9 | 0.9 | 1.9 | – | 3.2 | 78 | 8.7 | 8.7 | 110 | – | FR towards mutant H (mutant H): 49; Tox (pCC50) (mock-infected MT4 cells; [6]): 4.1
COC(=O)Nc1nc2ccc(S(=O)(=O)N(CC(C)C)C[C@@H](O)[C@H](Cc3ccccc3)NC(=O)COc3c(C)cccc3C)cc2[nH]1 [Compound 8, [(1S,2R)-2-hydroxy-3-[[[2-[(methoxycarbonyl)amino]-1H-benzimidazol-5-yl]sulfonyl](2-methylpropyl)amino]-1-(phenylmethyl)propyl]-(2,6-dimethylphenoxy)acetamide] | 2.0 | 1.4 | 1.9 | 2.1 | 2.3 | 16.2 | – | – | 89 | – | IC50 (HIV-1 strain LAI; [2]): 3.16 nM; IC50 (HIV-1 strain LAI; [3]): 3.16 nM; CC50 at 5 days (in vitro): > 100000 nM
CC(=O)Nc1nc2ccc(S(=O)(=O)N(CC(C)C)C[C@@H](O)[C@H](Cc3ccccc3)NC(=O)COc3c(C)cccc3C)cc2[nH]1 [Compound 9, [(1S,2R)-3-[[[2-(acetylamino)benzimidazol-5-yl]sulfonyl](2-methyl-propyl)amino]-2-hydroxy-1-(phenylmethyl)propyl]-(2,6-dimethylphenoxy)acetamide] | 1.3 | 4.4 | 2.4 | 4.3 | 2.8 | 14 | – | – | 107 | – | IC50 (HIV-1 strain LAI; [2]): 3.98 nM; IC50 (HIV-1 strain LAI; [3]): 3.98 nM; CC50 at 5 days (in vitro): > 100000 nM
CC(C)CN(CC(O)C(Cc1ccccc1)NC(=O)OC1COC2OCCC12)S(=O)(=O)c1ccc2ncn(C)c2c1 (stereo not shown) [Compound 18] | – | – | – | – | – | – | – | – | – | – | rat serum concentration at 30 min ([1]; IP administration of 20 mg/kg, 30 min): 2012 ng/mL; rat serum concentration at 180 min ([1]; IP administration of 20 mg/kg, 180 min): 190 ng/mL; rat serum concentration at 30 min ([1]; oral administration of 20 mg/kg as a DMSO formulation, 30 min): 148 ng/mL; rat serum concentration at 180 min ([1]; oral administration of 20 mg/kg as a DMSO formulation, 180 min): 44 ng/mL; rat serum concentration at 30 min ([1]; oral administration of 20 mg/kg in PEG400, 30 min): 475 ng/mL; rat serum concentration at 180 min ([1]; oral administration of 20 mg/kg in PEG400, 180 min): 63 ng/mL
CC(=O)Nc1nc2ccc(S(=O)(=O)N(CC(C)C)C[C@@H](O)[C@H](Cc3ccccc3)NC(=O)OC3COC4OCCC34)cc2[nH]1 (stereo partly shown) [Compound 38] | 0.32 | 0.39 | 0.19 | 0.12 | 0.17 | 0.21 | 6.7 | 6.7 | 0.60 | <4 | –
CC(C)CN(CC(O)C(Cc1ccccc1)NC(=O)OC1COC2OCCC12)S(=O)(=O)c1ccc2nc(NC(=O)OCCN(C)C)[nH]c2c1 (stereo not shown) [Compound 48] | 1.9 | 0.38 | 0.35 | 0.37 | 0.32 | 0.35 | 6.4 | 6.4 | 0.85 | – | Tox (pCC50) (mock-infected MT4 cells; [6]): <4
CC(C)CN(CC(O)C(Cc1ccccc1)NC(=O)OC1COC2OCCC12)S(=O)(=O)c1ccc2nc(CO)[nH]c2c1 (stereo not shown) [Compound 56] | 0.66 | 0.43 | 0.18 | 0.28 | 0.18 | 0.34 | 5.7 | 5.7 | 0.83 | <4 | –
CC(C)CN(C[C@@H](O)[C@H](Cc1ccccc1)NC(=O)OCc1cncs1)S(=O)(=O)c1ccc2nc(N)[nH]c2c1 [Compound 57] | 0.30 | 0.31 | 0.34 | 0.37 | 0.32 | 0.30 | 5.7 | 5.7 | 2.0 | <4 | –
CC(C)CN(C[C@@H](O)[C@H](Cc1ccccc1)NC(=O)OC1COC2OCCC12)S(=O)(=O)c1ccc2nc(NC(=O)NCCN(C)C)[nH]c2c1 (stereo partly shown) [Compound 58] | 1.0 | 1.0 | 0.32 | 1.0 | 0.37 | 1.1 | 5.6 | 5.6 | 1.1 | <4 | –
[(1S,2R)-2-hydroxy-3-[[(2-methylbenzimidazol-5-yl)sulfonyl](2-methylpropyl)amino]-1-(phenylmethyl)propyl]-carbamic acid, [(3R,3aS,6aR)-hexahydrofuro[2,3-b]furan-3-yl]ester [Compound 24] | 0.85 | 1.1 | 0.89 | 2.6 | 0.83 | 4.7 | 7.3 | 7.3 | 35 | – | Tox (pCC50) (mock-infected MT4 cells; [6]): <4
